{"source": "patent US8871681B2", "about": "“Herbicidal compositions comprising 4-amino-3-chloro-5-fluoro-6-(4-chloro-2-fluoro-3-methoxyphenyl) pyridine-2-carboxylic acid or a derivative thereof and certain sulfonylureas” (Dow AgroSciences LLC, priority 2012, dated 2014)", "system": "SCPMA (Bolboschoenus maritimus or Schoenoplectus maritimus, sea clubrush)", "assay": "In-water applied weed control, transplanted paddy rice, greenhouse (Example II)", "assay_type": "in vivo, Bolboschoenus maritimus (L.) Palla", "method_in_brief": "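Transplanted rice and weeds at first to fourth true leaf stage in flooded mud pots (2.5–3 cm water), greenhouse ~29/26 °C day/night. Herbicides alone or mixed, in 1.25% crop oil concentrate (acetone for technical material), injected into the flood; visual 0–100% injury after ~3 weeks, expected mixture effects by Colby.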"}
{"smiles": "COc1c(Cl)ccc(-c2nc(C(=O)O)c(Cl)c(N)c2F)c1F", "note": "[Compound A Acid, 4-amino-3-chloro-5-fluoro-6-(4-chloro-2-fluoro-3-methoxy-phenyl)pyridine-2-carboxylic acid]", "values": [{"measurement": "Visual Weed Control (%) - 20 DAA SCPMA Obs", "setting": "Table 28, 8.75 gae/ha alone", "value": 40, "unit": "%"}, {"measurement": "Visual Weed Control (%) - 20 DAA SCPMA Obs", "setting": "Table 28, 17.5 gae/ha alone", "value": 20, "unit": "%"}, {"measurement": "Visual Weed Control (%) - 20 DAA SCPMA Obs", "setting": "Table 28, 35 gae/ha alone", "value": 20, "unit": "%"}, {"measurement": "Visual Weed Control (%) - 20 DAA SCPMA Obs", "setting": "Table 28, second set, 70 gae/ha alone", "value": 0, "unit": "%"}, {"measurement": "Visual Weed Control (%) - 20 DAA SCPMA Obs", "setting": "Table 38, 35 gae/ha alone", "value": 0, "unit": "%"}, {"measurement": "Visual Weed Control (%) - 20 DAA SCPMA Obs", "setting": "Table 38, 70 gae/ha alone", "value": 0, "unit": "%"}, {"measurement": "Visual Weed Control (%) - 20 DAA SCPMA Obs", "setting": "Table 45, 42.4 gae/ha alone", "value": 0, "unit": "%"}, {"measurement": "Visual Weed Control (%) - 20 DAA SCPMA Obs", "setting": "Table 45, 84.8 gae/ha alone", "value": 0, "unit": "%"}]}
{"smiles": "COc1c(Cl)ccc(-c2nc(C(=O)OCc3ccccc3)c(Cl)c(N)c2F)c1F", "note": "[Compound A Benzyl Ester]", "values": [{"measurement": "Visual Weed Control (%) - 20 DAA SCPMA Obs", "setting": "Table 29, 4.38 gae/ha alone", "value": 10, "unit": "%"}, {"measurement": "Visual Weed Control (%) - 20 DAA SCPMA Obs", "setting": "Table 29, 8.75 gae/ha alone", "value": 0, "unit": "%"}, {"measurement": "Visual Weed Control (%) - 20 DAA SCPMA Obs", "setting": "Table 29, 17.5 gae/ha alone", "value": 20, "unit": "%"}, {"measurement": "Visual Weed Control (%) - 20 DAA SCPMA Obs", "setting": "Table 29, 35 gae/ha alone", "value": 0, "unit": "%"}, {"measurement": "Visual Weed Control (%) - 20 DAA SCPMA Obs", "setting": "Table 29, 70 gae/ha alone", "value": 0, "unit": "%"}, {"measurement": "Visual Weed Control (%) - 21 DAA SCPMA Obs", "setting": "Table 32, 48 gae/ha alone", "value": 0, "unit": "%"}, {"measurement": "Visual Weed Control (%) - 21 DAA SCPMA Obs", "setting": "Table 32, 96 gae/ha alone", "value": 0, "unit": "%"}, {"measurement": "Visual Weed Control (%) - 21 DAA SCPMA Obs", "setting": "Table 33, 8 gae/ha alone", "value": 0, "unit": "%"}, {"measurement": "Visual Weed Control (%) - 21 DAA SCPMA Obs", "setting": "Table 33, 16 gae/ha alone", "value": 0, "unit": "%"}, {"measurement": "Visual Weed Control (%) - 21 DAA SCPMA Obs", "setting": "Table 33, 32 gae/ha alone", "value": 0, "unit": "%"}, {"measurement": "Visual Weed Control (%) - 20 DAA SCPMA Obs", "setting": "Table 39, 35 gae/ha alone", "value": 0, "unit": "%"}, {"measurement": "Visual Weed Control (%) - 20 DAA SCPMA Obs", "setting": "Table 39, 70 gae/ha alone", "value": 0, "unit": "%"}, {"measurement": "Visual Weed Control (%) - 20 DAA SCPMA Obs", "setting": "Table 46, 35 gae/ha alone", "value": 0, "unit": "%"}, {"measurement": "Visual Weed Control (%) - 20 DAA SCPMA Obs", "setting": "Table 46, 70 gae/ha alone", "value": 0, "unit": "%"}, {"measurement": "Visual Weed Control (%) - 21 DAA SCPMA Obs", "setting": "Table 48, 8 gae/ha alone", "value": 0, "unit": "%"}, {"measurement": "Visual Weed Control (%) - 21 DAA SCPMA Obs", "setting": "Table 48, 16 gae/ha alone", "value": 0, "unit": "%"}, {"measurement": "Visual Weed Control (%) - 21 DAA SCPMA Obs", "setting": "Table 48, 32 gae/ha alone", "value": 0, "unit": "%"}]}
{"smiles": "COC(=O)c1ccccc1CS(=O)(=O)NC(=O)Nc1nc(OC)cc(OC)n1", "note": "[Bensulfuron-methyl, methyl 2-[[[[[(4,6-dimethoxy-2-pyrimidinyl)amino]carbonyl]amino]sulfonyl]methyl]benzoate, reference compound]", "values": [{"measurement": "Visual Weed Control (%) - 21 DAA SCPMA Obs", "setting": "Table 32, 17.5 gai/ha alone", "value": 45, "unit": "%"}, {"measurement": "Visual Weed Control (%) - 21 DAA SCPMA Obs", "setting": "Table 32, 35 gai/ha alone", "value": 90, "unit": "%"}]}
